This note sets out measurements from patent US20080207569A1, “Methods for the treatment of liver diseases” (priority 2007, published 2008).

The test system of data set [1] is TNF-α/D-Galactosamine induced liver injury. Kind of data set: TNF-α model of liver injury (TNFα/D-Gln), plasma ALT activity. The class given is in vivo, male C57B1/6 mice. As to the method: TNF-α is a cytokine that is implicated in inducing liver injury in a variety of acute and chronic liver diseases such as chronic HCV and acute liver failure. An exemplary in vivo model to test pharmacological agents against TNF-α induced injury is the TNF-α/D-Gal model of liver injury in mice. In this model, mice are treated with TNF-α/D-Gal and compound is administered to evaluate its ability to protect against liver damage. The compound is administered either before, at the time of or after the treatment with TNF-α/D-Gal, and followed for a period of approximately 6 hours. […]
Multiple outcome measures are used for this evaluation. […] The extent of liver damage can be graded by examining liver samples prepared and evaluated microscopically by trained observers. […] In certain embodiment, compounds described herein protect against TNF-α/D-Gal induced liver injury as determined by these parameters. In certain embodiment, compounds described herein protect against Fas induced liver injury as determined by these parameters. […]
In vivo efficacy of RO-113-0830 was assessed using male C57B1/6 mice (Simonsen Labs) in two well-established models of liver damage. […]
In the TNF-α model of liver injury, D-Galactosamine (D-Gln) (800 mg/kg) and TNFα (20 or 40 μg/kg) were injected IP. […] Plasma ALT activity was determined using a kit from Sigma-Aldrich.

The test system is the same in data set [2]. Kind of data set: TNF-α model of liver injury, 24 hour survival. In kind it is in vivo, male C57B1/6 mice. The following applies: TNF-α/D-Gln IP; average from 3 studies; p=0.03 vs control mice (27±7.3%). As to the method: TNF-α is a cytokine that is implicated in inducing liver injury in a variety of acute and chronic liver diseases such as chronic HCV and acute liver failure. An exemplary in vivo model to test pharmacological agents against TNF-α induced injury is the TNF-α/D-Gal model of liver injury in mice. In this model, mice are treated with TNF-α/D-Gal and compound is administered to evaluate its ability to protect against liver damage. The compound is administered either before, at the time of or after the treatment with TNF-α/D-Gal, and followed for a period of approximately 6 hours. Allowing this model to persist past 6 hours is a variation used to determine the improved survival afforded by compound treatment.
(§1) In vivo efficacy of RO-113-0830 was assessed using male C57B1/6 mice (Simonsen Labs) in two well-established models of liver damage. The mice were allowed to acclimate for at least three days.
To determine a benefit on survival, TNF-α model, D-Galactosamine (D-Gln) (800 mg/kg) and TNF-α (20 or 40 μg/kg) were injected IP, and mice were allowed to survive for 24 hours post insult. All morbid mice were euthanized with 125 mg/kg of Nembutal IP. The average 24 hour survival from 3 studies was 27±7.3% and. 55±7.6% (p=0.03) in the TNFα/D-Gln control mice and RO-113-0830-treated mice, respectively.

The next data set concerns Fas-induced liver damage. The data set is described as follows: Fas driven model of liver damage (activating antibody Jo-2), plasma ALT activity. In kind it is in vivo, male C57B1/6 mice. The conditions noted are these: 10 mg/kg PO; six hours after Jo-2 IV; average of 2 studies, p<0.05 in each. As to the method: as §1
In a Fas driven model of liver damage, an activating antibody to Fas (Jo-2) was administered IV. Six hours later, animals were anesthetized with Nembutal (50 mg/kg IP), and blood was taken by cardiac puncture. Plasma ALT activity was determined using a kit from Sigma-Aldrich.

Data set [3] concerns full-length HCV replicon in Huh7 human hepatoma cell line (21-5). The data set is described as follows: HCV RNA replicon antiviral evaluation assay. The class given is cell-based, hepatitis C virus. The following applies: 72 hr; HCV RNA replicon levels by TaqMan RT-PCR; read-out: EC50 (concentration inhibition virus replication by 50%). (In general: A replicon is a self-replicating genome or part of one, used to study replication in cells.)
Procedure: The assay was conducted as described by Pietschmann, T. et al., supra.
Human interferon alpha-2b was included in each run as a positive control compound. Subconfluent cultures of the ET line were plated out into 96-well plates that were dedicated for the analysis of cell numbers (cytotoxicity) or antiviral activity and the next day drugs were added to the appropriate wells. Cells were processed 72 hr later when the cells were still sub-confluent. HCV RNA replicon levels and the toxic concentration of drug that reduces cell numbers, as indicated by host cell ribosomal RNA (rRNA) levels, were assessed by TaqMan RT-PCR. The EC50 (concentration inhibition virus replication by 50%), IC50 (concentration decreasing cell viability by 50%) and SI50 (selective index: IC50/EC50) values were calculated.

For data set [4], the system named is Huh7 human hepatoma cell line (the 21-5 cell line). The conditions noted are these: read-out: IC50 for cytotoxicity (concentration decreasing cell viability by 50%); 72 hr; host cell rRNA levels by TaqMan RT-PCR. The source says: Cells were processed 72 hr later when the cells were still sub-confluent.
For orientation: Real-time PCR tracks product formation cycle by cycle.

Data set [5] relates to bile duct ligation (BDL) induced liver injury and hepatic fibrosis. The data set is described as follows: Bile duct ligation model of liver fibrosis. In kind it is in vivo, C57/BL6 wild-type mice. The conditions noted are these: 10 mg/kg once a day by gavage. As to the method: The bile duct ligation model is a well characterized model of liver fibrosis. Briefly, C57/BL6 wild-type mice 6 to 8 weeks of age were subjected to bile duct ligation (BDL) for 14 days. Sham-operated wild type mice were used as controls. Either RO 113-0830 or CMC (carboxymethylcellulose) were administered by gavage in a dose of 10 mg/kg body weight once a day. Hepatocyte apoptosis was quantified by the TUNEL assay and immunofluorescence for activated caspases 3/7. Liver injury was assessed by histopathology, and quantification of bile infarcts. Hepatic fibrosis was assessed by Sirius red staining and quantitative morphometry. Real-time polymerase chain reaction (PCR) was used to measure mRNA transcripts for collagen 1 alpha (I) and alpha-smooth muscle actin.

Regarding `O=C(NO)C1(CS(=O)(=O)c2ccc(Oc3ccc(Cl)cc3)cc2)CCOCC1` [RO-113-0830], the “plasma ALT activity, effect in words” value in data set [1] (0.001-30 mg/kg PO 30 minutes before insult, six hours) is listed as “dose-dependently decreased plasma ALT activity”. The “ED50 for decrease of plasma ALT activity” value in data set [1] (PO by gavage 30 minutes before TNFα/D-Gln insult, ALT six hours later, average from 4 studies) was 0.26 ± 0.08 mg/kg. Also, the 24 hour survival in data set [2] amounted to 55±7.6%. Moreover, in the data set on Fas-induced liver damage, the “reduction of Fas-induced elevation in plasma ALT activity” value turned out to be 50%. The EC50 in data set [3] amounted to 0.07 µM. Further, the IC50 in data set [4] is roughly 25 µM. Besides, in data set [5] (14 days of BDL), the “reduction of Sirius red staining of hepatic collagen” value is 3 fold. Also, the “reduction in the number of bile infarcts vs vehicle” value in data set [5] (14 days of BDL, histologic examination) is given as greater than 70%. Also, in data set [5] (14 days of BDL, p<0.01), the “decrease in TUNEL-positive hepatocytes vs vehicle” value is 3 fold and the “decrease in caspase 3/7-positive hepatocytes vs vehicle” value was determined as 5 fold. Moreover, in data set [5] (14 days of BDL, real-time PCR), the “reduction of hepatic mRNA for alpha-smooth muscle actin vs vehicle” value is given as greater than 60% and the “reduction of hepatic mRNA for collagen I vs vehicle” value is on record as greater than 60%. Also, in data set [5] (p<0.05), the “overall animal survival following 14 days of BDL” value was “significantly enhanced”.
